In ChEMBL document CHEMBL1141744, “Antibacterial steroidal alkaloids from Sarcococca saligna” (1998):

Legend:
Staphylococcus aureus = experiment: Antibacterial activity against Staphylococcus aureus at 200 ug/100uL after 24 hrs by agar well diffusion method; assay type: functional
Klebsiella pneumoniae = experiment: Antibacterial activity against Klebsiella pneumoniae at 200 ug/100uL after 24 hrs by agar well diffusion method; assay type: functional
Streptococcus pyogenes = experiment: Antibacterial activity against Streptococcus pyogenes at 200 ug/100uL after 24 hrs by agar well diffusion method; assay type: functional
Salmonella typhi = experiment: Antibacterial activity against Salmonella typhi at 200 ug/100uL after 24 hrs by agar well diffusion method; assay type: functional, Salmonella enterica subsp. enterica serovar Typhi
Pseudomonas aeruginosa = experiment: Antibacterial activity against Pseudomonas aeruginosa at 200 ug/100uL after 24 hrs by agar well diffusion method; assay type: functional
Proteus mirabilis = experiment: Antibacterial activity against Proteus mirabilis after at 200 ug/100uL 24 hrs by agar well diffusion method; assay type: functional
Shigella boydii = experiment: Antibacterial activity against Shigella boydii at 200 ug/100uL after 24 hrs by agar well diffusion method; assay type: functional

Compound | inhibition zone (IZ) (Staphylococcus aureus) | inhibition zone (IZ) (Klebsiella pneumoniae) | inhibition zone (IZ) (Streptococcus pyogenes) | inhibition zone (IZ) (Salmonella typhi) | inhibition zone (IZ) (Pseudomonas aeruginosa) | inhibition zone (IZ) (Proteus mirabilis) | inhibition zone (IZ) (Shigella boydii)
C[C@@H]([C@H]1CC[C@H]2[C@@H]3CC[C@H]4C[C@@H](N(C)C(=O)/C=C/c5ccccc5)CC[C@]4(C)[C@H]3CC[C@]12C)N(C)C [SALIGCINNAMIDE] | 12 mm | 9 mm | 8 mm | 6 mm | 6 mm | 7 mm | 6 mm
CC1(C)S[C@@H]2[C@H](NC(=O)[C@H](N)c3ccc(O)cc3)C(=O)N2[C@H]1C(=O)O [AMOXICILLIN] | 16 mm | 17 mm | 16 mm | 12 mm | 15 mm | 16 mm | 17 mm
C[C@@H]([C@H]1CC[C@H]2[C@@H]3CC[C@H]4C[C@@H](N(C)Cc5ccccc5)CC[C@]4(C)[C@H]3CC[C@]12C)N(C)C | 9 mm | 6 mm |  |  | 5.5 mm |  | 
CC1(C)S[C@@H]2[C@H](NC(=O)[C@H](N)c3ccccc3)C(=O)N2[C@H]1C(=O)O [AMPICILLIN] | 18 mm | 17 mm | 17 mm | 12 mm | 15 mm | 17 mm | 17 mm
C[C@@H]([C@H]1CC[C@H]2[C@@H]3CC[C@H]4C[C@@H](N(C)C(=O)c5ccccc5)CC[C@]4(C)[C@H]3CC[C@]12C)N(C)C | 12 mm | 8 mm | 6 mm | 6 mm | 6 mm | 8 mm | 6 mm
C[C@@H]([C@H]1CC[C@H]2[C@@H]3CC[C@H]4C[C@@H](N(C)C(=O)CCc5ccccc5)CC[C@]4(C)[C@H]3CC[C@]12C)N(C)C | 11 mm | 10.5 mm |  |  | 7.5 mm |  | 
C[C@@H]([C@H]1CC[C@H]2[C@@H]3CC[C@H]4C[C@@H](NC(=O)c5ccccc5)CC[C@]4(C)[C@H]3CC[C@]12C)N(C)C [EPIPACHYSAMINE D] | 7 mm |  |  |  |  |  | 
C[C@@H]([C@H]1CC[C@H]2[C@@H]3CC[C@H]4C[C@@H](N(C)CCCc5ccccc5)CC[C@]4(C)[C@H]3CC[C@]12C)N(C)C |  |  |  |  | 5.5 mm |  | 
